Measured values: PubChem BioAssay AID274 (DTP/NCI, 2004)
“And” between values parts separate entries of the source, which are not always exact repeats. Identical values can stand only once. Inconclusive results and toxic doses are left out. How the source made its calls: active means survival T/C of 150% or more; inactive means T/C below 125% in these data.

Tested on: BDF1 mice, Lewis lung carcinoma iv, survival T/C
Assay: NCI In Vivo Anticancer Drug Screen. Data for tumor model Lewis Lung Carcinoma (intravenous) in B6D2F1 (BDF1) mice
Conditions: endpoint: median survival time, higher = longer survival
Protocol: The antitumor activity of compounds was measured in mice bearing transplantable tumors. Survival or tumor size were measured and the results are expressed as the measurement made in the treated group (T) divided by the measurement made in the vehicle treated control group (C). The tumor model used in this assay is Lewis Lung Carcinoma (intravenous) in B6D2F1 (BDF1) mice

[1] = dose: 12.5 mg/kg/injection, schedule: Q01DX009 (ip), vehicle: Klucel (hydroxypropylcellulose) (HPC)
[2] = dose: 25.0 mg/kg/injection, schedule: Q01DX009 (ip), vehicle: Klucel (hydroxypropylcellulose) (HPC)
[3] = dose: 50.0 mg/kg/injection, schedule: Q01DX009 (ip), vehicle: Klucel (hydroxypropylcellulose) (HPC)
[4] = dose: 6.25 mg/kg/injection, schedule: Q01DX009 (ip), vehicle: saline
[5] = dose: 12.5 mg/kg/injection, schedule: Q01DX009 (ip), vehicle: saline
[6] = dose: 25.0 mg/kg/injection, schedule: Q01DX009 (ip), vehicle: saline
[7] = dose: 50.0 mg/kg/injection, schedule: Q01DX009 (ip), vehicle: saline

Measured: T/C

CCC1OCC(C(Cl)CCl)O1 (configuration not stated)
inactive: dose: 3.12 mg/kg/injection, schedule: Q01DX009 (ip), vehicle: saline with Tween-80 103 % of control | dose: 6.25 mg/kg/injection, schedule: Q01DX009 (ip), vehicle: saline with Tween-80 97 % of control | [1] 97 % of control | dose: 12.5 mg/kg/injection, schedule: Q01DX009 (ip), vehicle: saline with Tween-80 108 % of control | [2] 98 % of control | dose: 25.0 mg/kg/injection, schedule: Q01DX009 (ip), vehicle: saline with Tween-80 109 % of control | [3] 97 % of control | dose: 50.0 mg/kg/injection, schedule: Q01DX009 (ip), vehicle: saline with Tween-80 94 % of control | dose: 100.0 mg/kg/injection, schedule: Q01DX009 (ip), vehicle: Klucel (hydroxypropylcellulose) (HPC) 96 % of control | dose: 100.0 mg/kg/injection, schedule: Q01DX009 (ip), vehicle: saline with Tween-80 109 % of control | dose: 200.0 mg/kg/injection, schedule: Q01DX009 (ip), vehicle: Klucel (hydroxypropylcellulose) (HPC) 97 % of control

CC1CCC(NC(=O)N(CCCl)N=O)CC1 (configuration not stated)
active: dose: 24.0 mg/kg/injection, schedule: Q01DX001 (ip), vehicle: saline with Tween-80 156 % of control | dose: 24.0 mg/kg/injection, schedule: Q06DX002 (ip), vehicle: saline with Tween-80 176 % of control and 270 % of control | dose: 30.0 mg/kg/injection, schedule: Q06DX002 (ip), vehicle: saline with Tween-80 220 % of control and 260 % of control | dose: 36.0 mg/kg/injection, schedule: Q01DX001 (ip), vehicle: saline with Tween-80 162 % of control and 185 % of control and 205 % of control
inactive: dose: 5.0 mg/kg/injection, schedule: Q01DX001 (ip), vehicle: saline 100 % of control | dose: 10.0 mg/kg/injection, schedule: Q01DX001 (ip), vehicle: saline 100 % of control | dose: 30.0 mg/kg/injection, schedule: Q01DX001 (ip), vehicle: saline 94 % of control and 103 % of control | dose: 40.0 mg/kg/injection, schedule: Q01DX001 (ip), vehicle: saline 103 % of control

O=S(=O)(O)O.[NH-]C1CCCCC1[NH-].[Pt+2] (configuration not stated)
inactive: dose: 0.63 mg/kg/injection, schedule: Q01DX009 (ip), vehicle: dextrose 101 % of control | dose: 1.25 mg/kg/injection, schedule: Q01DX009 (ip), vehicle: dextrose 110 % of control

[N-]=[N+]=C1N=CN=C1c1ncn[nH]1
inactive: dose: 3.12 mg/kg/injection, schedule: Q01DX009 (ip), vehicle: Klucel (hydroxypropylcellulose) (HPC) 98 % of control | dose: 6.25 mg/kg/injection, schedule: Q01DX009 (ip), vehicle: Klucel (hydroxypropylcellulose) (HPC) 100 % of control | [1] 95 % of control | [2] 120 % of control | [3] 97 % of control

Nc1nc2c(ncn2C2OC(CO)C(O)C2O)c(=O)[nH]1.Nc1nc2c(ncn2C2OC(CO)C(O)C2O)c(=O)[nH]1.[NH2-].[NH2-].[Pt+2] (configuration not stated)
inactive: dose: 12.5 mg/kg/injection, schedule: Q01DX009 (ip), vehicle: water 99 % of control | dose: 25.0 mg/kg/injection, schedule: Q01DX009 (ip), vehicle: water 96 % of control | dose: 50.0 mg/kg/injection, schedule: Q01DX009 (ip), vehicle: water 104 % of control | dose: 100.0 mg/kg/injection, schedule: Q01DX009 (ip), vehicle: water 113 % of control

COc1cc2cc3cc4cc(OC)c(OC)cc4c(C)[n+]3cc2cc1OC (tested in a mixture with another compound)
inactive: [4] 104 % of control | [5] 106 % of control | [6] 107 % of control | [7] 111 % of control

COc1nc(=O)n(C2C=CC(=O)O2)cc1F (configuration not stated)
inactive: [4] 97 % of control | [5] 102 % of control | [6] 96 % of control | [7] 102 % of control | dose: 100.0 mg/kg/injection, schedule: Q01DX009 (ip), vehicle: saline 97 % of control

[Cl][Sn]([c]1ccccc1)[c]1ccccc1
inactive: dose: 3.12 mg/kg/injection, schedule: Q01DX009 (ip), vehicle: saline 104 % of control | [4] 97 % of control | [5] 98 % of control
